For experiment [1], the system named is leucine/alanine mutant BET bromodomains. Also on record: method as in PMID 25323695. The note with it: cited from earlier work.
In experiment [2] the target is T1, Brd2(1) (Homo sapiens, UniProt P25440).
T1 construct: first bromodomain (e.g., Brd2(1)) versus second bromodomain (e.g., Brd2(2)); His6 (TEV-cleavable) (N); made in house; host or cells: E. coli BL21(DE3); plasmid a gift of the SGC Oxford
Nature of the experiment: Differential scanning fluorimetry (DSF) thermal shift. It counts as binding. The note with it: compound 10 μM (LightCycler480) or 30 μM (Mx3005P), read-out: Thermal stabilization (ΔTm).

The next experiment addresses T2, Brd2(1)W097F (Homo sapiens, UniProt P25440, W97F).
T2 construct: first bromodomain (e.g., Brd2(1)) versus second bromodomain (e.g., Brd2(2)); His6 (TEV-cleavable) (N); made in house; host or cells: E. coli BL21(DE3)
Described as above. The note with it: compound 10 μM (LightCycler480) or 30 μM (Mx3005P), read-out: Thermal stabilization (ΔTm). It counts as binding.

For another experiment, the target named is T3, Brd2(1)W097H (Homo sapiens, UniProt P25440, W97H).
T3 construct: first bromodomain (e.g., Brd2(1)) versus second bromodomain (e.g., Brd2(2)); His6 (TEV-cleavable) (N); made in house; host or cells: E. coli BL21(DE3)
T3 sequence (P25440 74-180 W97H limits assumed): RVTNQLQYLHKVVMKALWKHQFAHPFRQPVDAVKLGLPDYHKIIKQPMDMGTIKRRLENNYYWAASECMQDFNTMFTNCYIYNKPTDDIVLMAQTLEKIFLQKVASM
The experiment is described as above. The note with it: compound 10 μM (LightCycler480) or 30 μM (Mx3005P), read-out: Thermal stabilization (ΔTm). Type of experiment: binding.

For experiment [3], the target named is T4, Brd2(2) (Homo sapiens, UniProt P25440).
T4 construct: first bromodomain (e.g., Brd2(1)) versus second bromodomain (e.g., Brd2(2)); His6 (TEV-cleavable) (N); made in house; host or cells: E. coli BL21(DE3); plasmid a gift of the SGC Oxford
T4 sequence (P25440 344-453 limits assumed): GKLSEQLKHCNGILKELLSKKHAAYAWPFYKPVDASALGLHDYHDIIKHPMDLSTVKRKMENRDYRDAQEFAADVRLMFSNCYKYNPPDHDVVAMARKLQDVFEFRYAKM
The experiment is described as above. Type of experiment: binding. The note with it: compound 10 μM (LightCycler480) or 30 μM (Mx3005P), read-out: Thermal stabilization (ΔTm).

A further experiment deals with T5, Brd2(2)W370F (Homo sapiens, UniProt P25440, W370F).
T5 construct: first bromodomain (e.g., Brd2(1)) versus second bromodomain (e.g., Brd2(2)); His6 (TEV-cleavable) (N); made in house; host or cells: E. coli BL21(DE3)
T5 sequence (P25440 344-453 W370F limits assumed): as the sequence (P25440 344-453 limits assumed) above, with W27F counted along it
The description is as above. It counts as binding. The note with it: compound 10 μM (LightCycler480) or 30 μM (Mx3005P), read-out: Thermal stabilization (ΔTm).

The target in a further experiment is T6, Brd2(2)W370H (Homo sapiens, UniProt P25440, W370H).
T6 construct: first bromodomain (e.g., Brd2(1)) versus second bromodomain (e.g., Brd2(2)); His6 (TEV-cleavable) (N); made in house; host or cells: E. coli BL21(DE3)
T6 sequence (P25440 344-453 W370H limits assumed): as the sequence (P25440 344-453 limits assumed) above, with W27H counted along it
Described as above. Type of experiment: binding. The note with it: compound 10 μM (LightCycler480) or 30 μM (Mx3005P), read-out: Thermal stabilization (ΔTm).

Experiment [4] has as its target T7, Brd2(1)L110A (Homo sapiens, UniProt P25440, L110A).
T7 construct: first bromodomain (e.g., Brd2(1)) versus second bromodomain (e.g., Brd2(2)); His6 (TEV-cleavable) (N); made in house; host or cells: E. coli BL21(DE3)
The experiment is described as above. Type of experiment: binding. The note with it: compound 10 μM (LightCycler480) or 30 μM (Mx3005P), read-out: Thermal stabilization (ΔTm).

In experiment [5] the target is T8, Brd2(2)L383I (Homo sapiens, UniProt P25440, L383I).
T8 construct: first bromodomain (e.g., Brd2(1)) versus second bromodomain (e.g., Brd2(2)); His6 (TEV-cleavable) (N); made in house; host or cells: E. coli BL21(DE3)
T8 sequence (P25440 344-453 L383I limits assumed): as the sequence (P25440 344-453 limits assumed) above, with L40I counted along it
The experiment is described as above. The note with it: compound 10 μM (LightCycler480) or 30 μM (Mx3005P), read-out: Thermal stabilization (ΔTm). Type of experiment: binding.

Experiment [6] has as its target T9, Brd2(2)L383A (Homo sapiens, UniProt P25440, L383A).
T9 construct: first bromodomain (e.g., Brd2(1)) versus second bromodomain (e.g., Brd2(2)); His6 (TEV-cleavable) (N); made in house; host or cells: E. coli BL21(DE3)
The description is as above. Type of experiment: binding. The note with it: compound 10 μM (LightCycler480) or 30 μM (Mx3005P), read-out: Thermal stabilization (ΔTm).

Experiment [7] concerns WT and mutant Brd2(1) and Brd2(2) proteins. Nature of the experiment: DSF, WT and mutant proteins (statements in words). It counts as binding. The note with it: mutant compared with WT Brd2 proteins.
Experiment [8] addresses Brd2(2). The note with it: reported Kd; cited from earlier work.
For a further experiment, the target named is T10, Brd2(1)V103A (Homo sapiens, UniProt P25440, V103A).
T10 construct: first bromodomain (e.g., Brd2(1)) versus second bromodomain (e.g., Brd2(2)); His6 (TEV-cleavable) (N); made in house; host or cells: E. coli BL21(DE3)
T10 sequence (P25440 74-180 V103A limits assumed): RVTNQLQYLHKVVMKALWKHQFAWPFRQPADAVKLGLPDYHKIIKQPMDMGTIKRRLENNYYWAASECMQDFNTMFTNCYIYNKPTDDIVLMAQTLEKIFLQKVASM
Nature of the experiment: Differential scanning fluorimetry (DSF) thermal shift. Type of experiment: binding. The note with it: compound 10 μM (LightCycler480) or 30 μM (Mx3005P), read-out: Thermal stabilization (ΔTm).

For another experiment, the target named is T11, Brd2(2)V376A (Homo sapiens, UniProt P25440, V376A).
T11 construct: first bromodomain (e.g., Brd2(1)) versus second bromodomain (e.g., Brd2(2)); His6 (TEV-cleavable) (N); made in house; host or cells: E. coli BL21(DE3)
T11 sequence (P25440 344-453 V376A limits assumed): as the sequence (P25440 344-453 limits assumed) above, with V33A counted along it
The description is as above. It counts as binding. The note with it: compound 10 μM (LightCycler480) or 30 μM (Mx3005P), read-out: Thermal stabilization (ΔTm).

For experiment [9], the target named is T12, Brd2(1)L110I (Homo sapiens, UniProt P25440, L110I).
T12 construct: first bromodomain (e.g., Brd2(1)) versus second bromodomain (e.g., Brd2(2)); His6 (TEV-cleavable) (N); made in house; host or cells: E. coli BL21(DE3)
T12 sequence (P25440 74-180 L110I limits assumed): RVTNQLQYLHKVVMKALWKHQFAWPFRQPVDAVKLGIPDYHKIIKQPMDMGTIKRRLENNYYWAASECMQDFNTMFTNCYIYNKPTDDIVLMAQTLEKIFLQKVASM
The description is as above. It counts as binding. The note with it: compound 10 μM (LightCycler480) or 30 μM (Mx3005P), read-out: Thermal stabilization (ΔTm).

Experiment [10] concerns the target T1, Brd2(1). Nature of the experiment: Isothermal titration calorimetry (ITC). Type of experiment: binding.
The target in experiment [11] is T12, Brd2(1)L110I. Nature of the experiment: Isothermal titration calorimetry (ITC). It counts as binding. The note with it: ITC at 25 °C.
Experiment [12] concerns the target T7, Brd2(1)L110A. Nature of the experiment: Isothermal titration calorimetry (ITC). It counts as binding. The note with it: ITC at 25 °C.
Experiment [13] deals with T4, Brd2(2). Nature of the experiment: Isothermal titration calorimetry (ITC). It counts as binding.
The target in experiment [14] is T8, Brd2(2)L383I. Nature of the experiment: Isothermal titration calorimetry (ITC). The note with it: ITC at 25 °C. It counts as binding.
For experiment [15], the target named is T9, Brd2(2)L383A. Nature of the experiment: Isothermal titration calorimetry (ITC). It counts as binding. The note with it: ITC at 25 °C.
Experiment [16] deals with Brd2(2). Nature of the experiment: Isothermal titration calorimetry (ITC). The note with it: Brd2(2) over Brd2(1), from ITC Kd's. Type of experiment: binding.
A further experiment concerns the target Brd4(1) (Homo sapiens, UniProt O60885). Nature of the experiment: Isothermal titration calorimetry (ITC). It counts as binding. The note with it: ITC at 30 °C, […] DMSO.
The next experiment addresses Brd4(2) (Homo sapiens, UniProt O60885). Nature of the experiment: Isothermal titration calorimetry (ITC). The note with it: ITC at 30 °C, […] DMSO. It counts as binding.

T7 sequence (P25440 74-180 L110A limits assumed): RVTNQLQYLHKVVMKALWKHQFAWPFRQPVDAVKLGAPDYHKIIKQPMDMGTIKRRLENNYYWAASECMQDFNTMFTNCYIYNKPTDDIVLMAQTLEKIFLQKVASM
T2 sequence (P25440 74-180 W97F limits assumed): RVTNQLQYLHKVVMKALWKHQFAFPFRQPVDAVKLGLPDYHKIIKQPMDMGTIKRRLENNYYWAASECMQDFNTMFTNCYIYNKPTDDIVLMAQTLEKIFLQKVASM
T9 sequence (P25440 344-453 L383A limits assumed): as the sequence (P25440 344-453 limits assumed) above, with L40A counted along it
T1 sequence (P25440 74-180 limits assumed): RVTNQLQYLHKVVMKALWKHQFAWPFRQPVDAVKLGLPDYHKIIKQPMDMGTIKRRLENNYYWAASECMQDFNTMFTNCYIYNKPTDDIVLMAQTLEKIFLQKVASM

With `CC[C@@H](C(=O)OC)[C@@H]1N=C(c2ccc(Cl)cc2)c2cc(OC)ccc2-n2c(C)nnc21` [ET (6)], in experiment [1] (average across the entire subfamily), the “selectivity for L/A mutants relative to WT BET bromodomains, average” value is 160 fold. Also, the “affinity for leucine/alanine mutant BET bromodomains” value in [1] (in words) was “low nanomolar affinity”.
Regarding `COC(=O)CC1N=C(c2cc(C)ccc2C)c2cc(OC)ccc2-n2c(C)nnc21` (stereo not drawn) [compound 26], the ΔTm at 10 µM is 1.8 ± 0.2 °C on Brd2(1) [2]; 0.1 ± 0.2 °C at Brd2(1)W097F; -0.4 °C on Brd2(1)W097H; 3.5 ± 0.1 °C on Brd2(2) [3]; 0.6 ± 0.1 °C at Brd2(2)W370F; -0.1 °C on Brd2(2)W370H.
In the case of `COC(=O)CC1N=C(c2ccc(Cl)cc2C)c2cc(OC)ccc2-n2c(C)nnc21` (stereo not drawn) [compound 24], the ΔTm at 10 µM came to 6.3 ± 0.1 °C on Brd2(1) [2]; 1.4 ± 0.2 °C on Brd2(1)W097F; 0.9 ± 0.3 °C at Brd2(1)W097H; 6.6 ± 0.2 °C on Brd2(2) [3]; 2.8 ± 0.1 °C at Brd2(2)W370F; 1.1 ± 0.2 °C at Brd2(2)W370H.
Regarding `COC(=O)[C@@H](C)[C@@H]1N=C(c2ccc(Cl)cc2)c2cc(OC)ccc2-n2c(C)nnc21` [compound 16], the ΔTm at 10 µM at Brd2(1) [2] was -0.3 °C; on Brd2(1)L110A [4] it was 1.6 ± 0.2 °C; at Brd2(2) [3], 0.2 ± 0.2 °C; on Brd2(2)L383I [5] it was 0.3 ± 0.2 °C; at Brd2(2)L383A [6], 0.8 ± 0.6 °C. Besides, in experiment [7], the “thermal stabilization, in words” value is on record as “did not induce a significant stabilization”.
Turning to `COC(=O)CC1N=C(c2cc(Cl)ccc2Cl)c2cc(OC)ccc2-n2c(C)nnc21` (stereo not drawn) [compound 27], the ΔTm at 10 µM on Brd2(1) [2] is 1.2 ± 0.2 °C; on Brd2(1)W097F it was 0 °C; at Brd2(1)W097H, -0.4 °C; on Brd2(2) [3], 2.5 ± 0.2 °C; at Brd2(2)W370F, 0.3 °C; at Brd2(2)W370H it was -0.4 °C.
For `CC(=O)NCCCCn1c2c(c3ccccc31)C(=O)NCC2` [olinone], at Brd2(2) [8], the Kd was > 300 µM.
With `COC(=O)CC1N=C(c2ccc(Cl)cc2)c2cc(OC)cc(C)c2-n2c(C)nnc21` (stereo not drawn) [compound 15], the ΔTm at 10 µM is 0.7 ± 0.2 °C on Brd2(1) [2], 0.5 ± 0.3 °C at Brd2(1)V103A, 4 ± 0.1 °C at Brd2(2) [3] and 1.2 ± 0.1 °C at Brd2(2)V376A.
With `COC(=O)[C@H](C)[C@@H]1N=C(c2ccc(Cl)cc2)c2cc(OC)ccc2-n2c(C)nnc21` [ME], the ΔTm at 10 µM worked out at 3.2 ± 0.2 °C at Brd2(1) [2]; 5.7 ± 0.7 °C on Brd2(1)L110I [9]; 7.9 ± 0.2 °C on Brd2(1)L110A [4]; 5.6 ± 0.1 °C at Brd2(2) [3]; 9.6 ± 0.1 °C on Brd2(2)L383I [5]; 9.3 ± 0.2 °C at Brd2(2)L383A [6]. Moreover, the Kd at Brd2(1) [10] (ITC at 25 °C) came to 1.47 ± 0.18 µM; at Brd2(1)L110I [11], 0.26 ± 0.04 µM; on Brd2(1)L110A [12], 0.017 ± 0.004 µM; at Brd2(2) [13] (ITC at 25 °C) it was 0.3 ± 0.08 µM; on Brd2(2)L383I [14], 0.027 ± 0.012 µM; on Brd2(2)L383A [15] it was 0.022 ± 0.004 µM. For the same molecule, the “ΔH (binding enthalpy)” value was “–8.6 ± 0.2 kcal/mol” at Brd2(1) [10] (ITC at 25 °C); “–8.5 ± 0.1 kcal/mol” at Brd2(1)L110I [11]; “–16.8 ± 0.2 kcal/mol” at Brd2(1)L110A [12]; “–5.4 ± 0.1 kcal/mol” at Brd2(2) [13] (ITC at 25 °C); “–9.8 ± 0.1 kcal/mol” on Brd2(2)L383I [14]; “–12.6 ± 0.1 kcal/mol” on Brd2(2)L383A [15].
On to `COC(=O)CC1N=C(c2cccc3[nH]ccc23)c2cc(OC)ccc2-n2c(C)nnc21` (stereo not drawn) [compound 28], for which the ΔTm at 10 µM came to 6.8 ± 0.6 °C at Brd2(1) [2]; 1.9 ± 0.5 °C on Brd2(1)W097F; 0.6 ± 0.3 °C on Brd2(1)W097H; 7.7 ± 0.2 °C at Brd2(2) [3]; 5.2 ± 0.1 °C at Brd2(2)W370F; 2.7 ± 0.4 °C on Brd2(2)W370H. Moreover, the Kd on Brd2(1) [10] (ITC at 30 °C, […] DMSO) was 0.78 µM; at Brd2(2) [13] (ITC at 30 °C, […] DMSO), 0.045 µM; at Brd4(1) it was 0.52 µM; on Brd4(2), 0.05 µM. Moreover, the “selectivity for the second over the first bromodomain” value with Brd2(2) [16] is given as “ca. 20 fold”.
Consider `COC(=O)CC1N=C(c2ccc(Cl)c(C)c2)c2cc(OC)ccc2-n2c(C)nnc21` (stereo not drawn) [compound 25], for which the ΔTm at 10 µM on Brd2(1) [2] is 1.5 ± 0.2 °C; on Brd2(1)W097F it was -0.1 °C; on Brd2(1)W097H, 0.2 ± 0.2 °C; at Brd2(2) [3], 3.2 ± 0.1 °C; at Brd2(2)W370F, 1.5 °C; on Brd2(2)W370H, 1 ± 0.3 °C.
